From ChEMBL document CHEMBL5233255, “Natural and nature-inspired stilbenoids as antiviral agents” (Eur J Med Chem, 2020) come the findings set out here.

≈ marks a conversion by molar mass, not a printed value.

Type in all cases: functional, organism-based
Assay [1] relates to Human alphaherpesvirus 1. The assay can be described thus: Antiviral activity against HSV-1 7401H infected in African green monkey Vero cells incubated for 2 days by plaque reduction assay. Conditions: Human alphaherpesvirus 1, 7401H. For orientation: Plaques are areas of infected cells; plaque reduction assays count them against a control.
Assay [2] has as its system Human alphaherpesvirus 1. The assay can be described thus: Antiviral activity against HSV-1 KOS infected in African green monkey Vero cells incubated for 2 days by plaque reduction assay. Conditions: Human alphaherpesvirus 1, KOS, 48 h.
A further assay relates to Human alphaherpesvirus 2. The experiment in a line: Antiviral activity against HSV-2 Baylor 186 infected in African green monkey Vero cells incubated for 2 days by plaque reduction assay. Conditions: Human alphaherpesvirus 2, Baylor 186, Vero, 48 h.

For the molecule `Oc1cc(O)cc(/C=C/c2ccc(O)cc2O)c1` [OXYRESVERATROL], the IC50 – broadly, the concentration needed to halve the response being measured – in the assay with Human alphaherpesvirus 1 [1] is 19.8 µg/mL (≈ 81.1 µM); in the assay on Human alphaherpesvirus 1 [2], 24 µg/mL (≈ 98.3 µM); in the assay on Human alphaherpesvirus 2 it was 18.7 µg/mL (≈ 76.6 µM).
